Blank lines part the entries; values can stand above or below the compound they belong to. Activity calls are given as the source filed them. No cut-off for these calls is given here.
What was measured:
Histone deacetylase 1 = Histone deacetylase 1 (Homo sapiens, UniProt Q13547); assay: Inhibition of HDAC1 (unknown origin) using Ac-peptide as substrate preincubated for 15 mins followed by substrate addition by fluorescence assay
[1] = biological target: Amine oxidase [flavin-containing] A (Homo sapiens, UniProt P21397); assay: Inhibition of human recombinant MAO-A by multimode plate reader assay
Histone deacetylase 8 = Histone deacetylase 8 (Homo sapiens, UniProt Q9BY41); assay: Inhibition of HDAC8 (unknown origin) using Ac-peptide as substrate preincubated for 15 mins followed by substrate addition by fluorescence based microplate reader analysis
MGC-803 [2] = assay: Induction of apoptosis in human MGC-803 cells assessed as increase in Bax protein expression at 1.25 to 7.5 uM incubated for 48 hrs by western blot analysis; assay type: functional, cell-based; conditions: dose 1.25-7.5 µM
MGC-803 [3] = assay: Inhibition of colony formation in human MGC-803 cells assessed as reduction in colony formation at 4 to 8 uM measured after 7 days by crystal violet staining based microscopic analysis; assay type: functional, cell-based; conditions: dose 4-8 µM, time 7.0 day
MGC-803 [4] = assay: Inhibition of cell migration in human MGC-803 cells at 2 to 8 uM up to 24 hrs by wound healing assay; assay type: functional, cell-based; conditions: dose 2-8 µM, time hrs <=24
MGC-803 [5] = assay: Inhibition of cell migration in human MGC-803 cells 4 to 8 uM up to 24 hrs by Hoechst 33258 staining based transwell migration assay; assay type: functional; conditions: dose 4-8 µM, time hrs <=24
MGC-803 [6] = assay: Inhibition of cell migration in human MGC-803 cells assessed as downregulation of Vimentin at 2 to 8 uM for 48 hrs by western blot analysis; assay type: functional, cell-based; conditions: dose 2-8 µM
MGC-803 [7] = assay: Inhibition of cell migration in human MGC-803 cells assessed as upregulation of ZO-1 at 2 to 8 uM for 48 hrs by western blot analysis; assay type: functional, cell-based; conditions: dose 2-8 µM
MGC-803 [8] = assay: Inhibition of cell migration in human MGC-803 cells assessed as upregulation of E-cadherin at 2 to 8 uM for 48 hrs by western blot analysis; assay type: functional, cell-based; conditions: dose 2-8 µM
CYP2C19 = CYP2C19 (Homo sapiens, UniProt P33261); assay: Inhibition of CYP2C19 (unknown origin) at 10 uM using S-mephenytoin as substrate relative to control; assay type: ADME; conditions: probe S-mephenytoin
Histone deacetylase 2 = Histone deacetylase 2 (Homo sapiens, UniProt Q92769)
MGC-803 [9] = assay: Inhibition of colony formation in human MGC-803 cells assessed as reduction in colony formation at 0.2 to 0.6 uM measured after 7 days by crystal violet staining based microscopic analysis; assay type: functional, cell-based; conditions: dose 0.2-0.6 µM, time 7.0 day
MGC-803 [10] = assay: Inhibition of cell migration in human MGC-803 cells 0.2 to 0.6 uM up to 24 hrs by Hoechst 33258 staining based transwell migration assay; assay type: functional; conditions: dose 0.2-0.6 µM, time hrs <=24
MGC-803 [11] = assay: Inhibition of cell migration in human MGC-803 cells assessed as downregulation of Vimentin at 0.2 to 0.6 uM for 48 hrs by western blot analysis; assay type: functional, cell-based; conditions: dose 0.2-0.6 µM
MGC-803 [12] = assay: Inhibition of cell migration in human MGC-803 cells assessed as upregulation of ZO-1 at 0.2 to 0.6 uM for 48 hrs by western blot analysis; assay type: functional, cell-based; conditions: dose 0.2-0.6 µM
MGC-803 [13] = assay: Inhibition of cell migration in human MGC-803 cells assessed as upregulation of E-cadherin at 0.2 to 0.6 uM for 48 hrs by western blot analysis; assay type: functional, cell-based; conditions: dose 0.2-0.6 µM
AGS = assay: cells; conditions: Homo sapiens, 72 h
BGC-823 = assay: cells; conditions: Homo sapiens, BGC-823, 72 h
MKN-1 = assay: cells; conditions: Homo sapiens, MKN-1, 72 h
MKN-45 = assay: cells; conditions: Homo sapiens, MKN-45, 72 h
NCI-N87 = assay: cells; conditions: Homo sapiens, NCI-N87, 72 h
SNU1 = assay: cells; conditions: Homo sapiens, SNU1, 72 h

Sequence of Amine oxidase [flavin-containing] A (P21397 whole entry): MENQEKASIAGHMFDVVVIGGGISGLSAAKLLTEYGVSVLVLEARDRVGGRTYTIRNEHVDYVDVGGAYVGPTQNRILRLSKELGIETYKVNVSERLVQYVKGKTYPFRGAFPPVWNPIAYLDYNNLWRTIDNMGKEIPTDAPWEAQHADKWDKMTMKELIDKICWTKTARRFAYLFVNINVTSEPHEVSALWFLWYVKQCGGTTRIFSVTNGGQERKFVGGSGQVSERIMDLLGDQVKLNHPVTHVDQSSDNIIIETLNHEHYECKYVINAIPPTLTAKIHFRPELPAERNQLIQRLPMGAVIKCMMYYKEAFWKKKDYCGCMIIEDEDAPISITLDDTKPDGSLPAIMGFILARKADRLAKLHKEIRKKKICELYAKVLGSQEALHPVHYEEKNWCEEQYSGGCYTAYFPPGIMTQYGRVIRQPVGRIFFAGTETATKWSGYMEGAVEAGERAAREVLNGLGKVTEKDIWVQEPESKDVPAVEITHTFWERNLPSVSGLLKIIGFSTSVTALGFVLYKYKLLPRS
Sequence of CYP2C19 (P33261 whole entry): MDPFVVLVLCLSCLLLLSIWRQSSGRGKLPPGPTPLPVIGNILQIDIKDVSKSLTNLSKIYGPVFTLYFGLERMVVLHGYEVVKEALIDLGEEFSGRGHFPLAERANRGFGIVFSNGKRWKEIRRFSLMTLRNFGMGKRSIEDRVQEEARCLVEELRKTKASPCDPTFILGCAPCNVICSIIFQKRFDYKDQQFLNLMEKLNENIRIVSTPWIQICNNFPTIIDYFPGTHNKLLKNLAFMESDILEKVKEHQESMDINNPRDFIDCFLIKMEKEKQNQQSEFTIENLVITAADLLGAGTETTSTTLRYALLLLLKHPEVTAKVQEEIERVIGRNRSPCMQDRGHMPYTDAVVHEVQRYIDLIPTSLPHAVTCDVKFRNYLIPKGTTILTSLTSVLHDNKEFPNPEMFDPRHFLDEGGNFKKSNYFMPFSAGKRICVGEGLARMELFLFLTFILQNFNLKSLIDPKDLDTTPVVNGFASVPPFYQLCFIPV
Sequence of Histone deacetylase 1 (Q13547 whole entry): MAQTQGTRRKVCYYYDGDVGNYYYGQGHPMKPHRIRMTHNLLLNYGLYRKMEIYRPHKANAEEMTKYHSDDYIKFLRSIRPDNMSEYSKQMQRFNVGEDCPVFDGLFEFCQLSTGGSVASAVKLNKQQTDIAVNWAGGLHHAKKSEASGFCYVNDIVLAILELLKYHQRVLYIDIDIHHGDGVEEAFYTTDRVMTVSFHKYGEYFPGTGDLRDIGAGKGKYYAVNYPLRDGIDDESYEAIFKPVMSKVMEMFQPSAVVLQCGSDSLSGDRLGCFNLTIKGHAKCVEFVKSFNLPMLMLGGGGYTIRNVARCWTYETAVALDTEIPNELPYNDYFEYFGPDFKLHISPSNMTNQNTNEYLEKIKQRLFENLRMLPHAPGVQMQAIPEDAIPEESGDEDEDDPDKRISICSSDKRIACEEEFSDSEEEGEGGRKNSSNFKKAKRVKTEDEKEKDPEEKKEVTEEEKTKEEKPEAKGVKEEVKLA
Sequence of Histone deacetylase 8 (Q9BY41 whole entry): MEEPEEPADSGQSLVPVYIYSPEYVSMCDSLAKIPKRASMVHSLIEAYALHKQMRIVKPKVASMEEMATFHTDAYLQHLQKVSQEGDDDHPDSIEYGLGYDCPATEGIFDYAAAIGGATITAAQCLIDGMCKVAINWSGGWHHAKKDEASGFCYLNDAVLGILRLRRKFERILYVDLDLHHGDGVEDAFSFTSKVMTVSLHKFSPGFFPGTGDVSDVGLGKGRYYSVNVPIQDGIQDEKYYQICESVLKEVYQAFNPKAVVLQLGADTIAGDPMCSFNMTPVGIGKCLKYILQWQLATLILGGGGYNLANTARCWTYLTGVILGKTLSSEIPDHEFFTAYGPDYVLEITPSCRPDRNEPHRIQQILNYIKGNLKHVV
Sequence of Histone deacetylase 2 (Q92769 whole entry): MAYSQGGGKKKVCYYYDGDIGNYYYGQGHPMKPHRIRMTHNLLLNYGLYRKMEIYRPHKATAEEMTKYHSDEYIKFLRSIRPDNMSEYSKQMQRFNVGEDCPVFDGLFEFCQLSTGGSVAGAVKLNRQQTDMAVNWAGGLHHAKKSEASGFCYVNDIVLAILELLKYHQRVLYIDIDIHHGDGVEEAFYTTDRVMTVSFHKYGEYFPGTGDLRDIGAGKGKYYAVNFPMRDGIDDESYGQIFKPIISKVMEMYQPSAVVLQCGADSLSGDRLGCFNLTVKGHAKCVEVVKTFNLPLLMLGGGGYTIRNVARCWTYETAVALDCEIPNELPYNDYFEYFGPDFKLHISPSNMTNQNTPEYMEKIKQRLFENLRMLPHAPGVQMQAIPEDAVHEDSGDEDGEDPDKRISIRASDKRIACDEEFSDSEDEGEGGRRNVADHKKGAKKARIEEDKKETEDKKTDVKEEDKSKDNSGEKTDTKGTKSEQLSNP

IC50 (Histone deacetylase 1): 220 nM
IC50 [1]: 34100 nM
IC50 (Histone deacetylase 8): 4620 nM
inhibition at 10 µM (CYP2C19): 18.7%
SMILES: O=C(NO)c1ccc(/C=C/c2ccnc(-c3ccccc3O)c2)cc1
Activity (MGC-803 [2]): Dose-Dependent Effect
Activity (MGC-803 [3]): Dose-Dependent Effect
inhibition (MGC-803 [4]): Dose-Dependent Effect
inhibition (MGC-803 [5]): Dose-Dependent Effect
Activity (MGC-803 [6]): Active
Activity (MGC-803 [7]): Active
Activity (MGC-803 [8]): Active

IC50 (Histone deacetylase 1): 370 nM
IC50 [1]: > 100000 nM
IC50 (Histone deacetylase 2): 404 nM
IC50 (Histone deacetylase 8): 8780 nM
inhibition at 10 µM (CYP2C19): 22.8%
IC50 (AGS): 1560 nM
IC50 (BGC-823): 1500 nM
IC50 (MKN-1): 400 nM
IC50 (MKN-45): 1160 nM
IC50 (NCI-N87): 230 nM
IC50 (SNU1): 1010 nM
SMILES: Cc1ccc(-c2cc(/C=C/c3ccc(C(=O)NO)cc3)ccn2)c(F)c1
Activity (MGC-803 [2]): Dose-Dependent Effect
inhibition (MGC-803 [9]): Dose-Dependent Effect
inhibition (MGC-803 [10]): Dose-Dependent Effect
Activity (MGC-803 [11]): Active
Activity (MGC-803 [12]): Active
Activity (MGC-803 [13]): Active

— ChEMBL document CHEMBL5038581, “Design, synthesis, and biological evaluation of novel dual inhibitors targeting lysine specific demethylase 1 (LSD1) and histone deacetylases (HDAC) for treatment of gastric cancer” (Eur J Med Chem, 2021)
